Data on 22 molecules can be found in US10968210B2, “Diamino-alkylamino-linked arylsulfonamide compounds with selective activity in voltage-gated sodium channels” (Merck Sharp & Dohme Corp., priority 2016, dated 2021).

Test [1] addresses T1, human Nav 1.7 channels stably expressed in HEK 293 cells (Homo sapiens, UniProt Q15858).
T1 construct: expressed in transfected cells; host or cells: HEK 293
Kind of test: IonWorks Quattro automated patch-clamp, inactivated state block of Nav 1.7. Format: cell-based. The following applies: double-pulse protocol, HEK 293 cells held at -100 mV, read-out: potency for the Nav 1.7 sodium ion channel (IC50, IonWorks). As for the experimental part: (§1) IonWorks® Experimental Procedure
(§2) Compounds were tested on human Nav 1.7 and Nav 1.5 channels stably expressed in HEK 293 cells. Sodium current measurements on IonWorks Quattro: An automated patch-clamp assay on the IonWorks Quattro platform (Molecular Devices) was used to measure state-dependent inhibition of human Nav 1.7 and Nav 1.5 channels. Cells were sealed on a planar substrate using the Population Patch Plate (PPC) technology. Electrical access was obtained using both nystatin and amphotericin. A double-pulse protocol was used for the determination of IC50 values for inactivated state block. Nav 1.7 and Nav 1.5 expressing cells were voltage clamped at −100 mV and −110 mV, respectively. A depolarizing prepulse to −10 mV (Nav 1.7) or −30 mV (Nav 1.5) for 1000 ms followed by a 10 ms repolarization to ˜100 mV (Nav1.7) or −110 mV (Nav 1.5) was given to generate fractional channel inactivation of ˜50%, followed by a 10 ms test pulse to −10 mV (Nav 1.7) or −30 mV (Nav 1.5) to measure peak current in control conditions and after compound addition. The following recording solutions were used (mM). External: 150 NaCl, 2 CaCl2, 5 KCl, 1 Mg Cl2, 10 HEPES, 12 Dextrose; internal: 120 CsF, 30 CsCl, 10 EGTA, 5 HEPES, 5 NaF, 2 MgCl2.
(§3) For all electrophysiology experiments, offline analysis was used to determine percent inhibition as a function of drug concentration. IC50 values were determined by fitting to the Hill equation.
(§4) The various compounds in Examples 1 through 4 and Tables 1 through 3 exemplified above were assayed for activity and selectivity using the foregoing IonWorks® technique. The results are reported in the following paragraph in a format expressing the identification of the compound with reference Example and compound (e.g. Ex 1-9 is Example 1, compound 9) followed by the observed potency in nM and the ratio of Nav1.7 potency: Nav1.5 potency as described here. Thus, Ex1-9: 1.7=65/ratio=641 identifies compound Example 1, compound 9 as having 65 nM potency for the Nav 1.7 sodium ion channel (as measured by IonWorks®) and a ratio of 641 Nav 1.7: Nav 1.5 potency, determined by IonWorks® measurement.

Test [2] concerns the target T2, human Nav 1.5 channels stably expressed in HEK 293 cells (Homo sapiens, UniProt Q14524).
T2 construct: expressed in transfected cells; host or cells: HEK 293
As to the kind of experiment: IonWorks Quattro automated patch-clamp, inactivated state block of Nav 1.5 (reported as ratio to Nav 1.7 potency). Particulars: selectivity for Nav 1.7 over Nav 1.5, both by IonWorks. Format: cell-based. As for the experimental part: as §1, §2, §3, §4

T2 sequence (Q14524 whole entry): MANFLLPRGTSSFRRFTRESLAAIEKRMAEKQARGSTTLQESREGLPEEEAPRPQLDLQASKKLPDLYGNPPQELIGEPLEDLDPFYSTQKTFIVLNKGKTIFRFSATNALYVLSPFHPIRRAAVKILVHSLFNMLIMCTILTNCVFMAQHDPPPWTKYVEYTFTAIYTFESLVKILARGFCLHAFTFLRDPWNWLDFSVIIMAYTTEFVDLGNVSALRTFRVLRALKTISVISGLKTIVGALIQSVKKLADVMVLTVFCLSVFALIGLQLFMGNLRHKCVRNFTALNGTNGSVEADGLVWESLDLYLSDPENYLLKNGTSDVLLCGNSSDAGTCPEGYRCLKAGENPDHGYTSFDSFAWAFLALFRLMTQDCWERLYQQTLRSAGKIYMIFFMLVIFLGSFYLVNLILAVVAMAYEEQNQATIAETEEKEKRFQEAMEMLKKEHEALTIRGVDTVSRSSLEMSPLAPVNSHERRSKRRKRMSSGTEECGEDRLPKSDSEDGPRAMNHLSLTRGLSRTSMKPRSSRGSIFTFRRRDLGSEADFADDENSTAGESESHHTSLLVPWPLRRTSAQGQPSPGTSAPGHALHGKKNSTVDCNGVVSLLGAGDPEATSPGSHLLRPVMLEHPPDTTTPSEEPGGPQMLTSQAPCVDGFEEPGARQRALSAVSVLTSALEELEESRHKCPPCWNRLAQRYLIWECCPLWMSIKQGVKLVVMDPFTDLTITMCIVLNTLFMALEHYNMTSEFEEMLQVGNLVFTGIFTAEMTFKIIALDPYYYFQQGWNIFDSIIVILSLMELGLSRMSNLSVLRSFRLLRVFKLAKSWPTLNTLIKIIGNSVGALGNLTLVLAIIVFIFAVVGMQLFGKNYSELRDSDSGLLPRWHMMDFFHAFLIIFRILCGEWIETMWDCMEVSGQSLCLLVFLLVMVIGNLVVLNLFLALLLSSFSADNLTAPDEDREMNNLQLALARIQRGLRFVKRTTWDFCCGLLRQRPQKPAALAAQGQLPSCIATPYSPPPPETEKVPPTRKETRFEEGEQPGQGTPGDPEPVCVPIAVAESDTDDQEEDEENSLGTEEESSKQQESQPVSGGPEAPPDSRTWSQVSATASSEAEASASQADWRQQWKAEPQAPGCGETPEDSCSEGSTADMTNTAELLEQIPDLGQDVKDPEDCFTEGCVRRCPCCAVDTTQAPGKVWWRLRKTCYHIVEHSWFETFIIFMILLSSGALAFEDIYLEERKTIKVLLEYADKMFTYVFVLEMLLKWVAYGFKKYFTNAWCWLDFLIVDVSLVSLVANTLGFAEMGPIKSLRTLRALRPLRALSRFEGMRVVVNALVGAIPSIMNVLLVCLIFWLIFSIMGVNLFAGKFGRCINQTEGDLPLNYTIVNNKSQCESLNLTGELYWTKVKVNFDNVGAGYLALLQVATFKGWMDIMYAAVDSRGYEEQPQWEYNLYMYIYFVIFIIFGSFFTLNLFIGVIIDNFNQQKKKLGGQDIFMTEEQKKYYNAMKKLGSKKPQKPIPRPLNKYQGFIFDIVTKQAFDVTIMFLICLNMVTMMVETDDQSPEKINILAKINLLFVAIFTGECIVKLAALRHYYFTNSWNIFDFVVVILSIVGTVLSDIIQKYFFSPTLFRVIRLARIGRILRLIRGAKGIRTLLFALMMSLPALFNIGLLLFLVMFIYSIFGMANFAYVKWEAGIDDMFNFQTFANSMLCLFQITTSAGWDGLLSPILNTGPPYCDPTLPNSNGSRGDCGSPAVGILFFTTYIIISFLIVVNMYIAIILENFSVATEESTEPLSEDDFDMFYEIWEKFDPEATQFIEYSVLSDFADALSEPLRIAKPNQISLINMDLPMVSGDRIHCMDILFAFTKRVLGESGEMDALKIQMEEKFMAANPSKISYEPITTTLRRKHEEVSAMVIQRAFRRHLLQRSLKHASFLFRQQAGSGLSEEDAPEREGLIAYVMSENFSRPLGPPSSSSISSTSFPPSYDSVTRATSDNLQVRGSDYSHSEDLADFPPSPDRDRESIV
T1 sequence (Q15858 whole entry): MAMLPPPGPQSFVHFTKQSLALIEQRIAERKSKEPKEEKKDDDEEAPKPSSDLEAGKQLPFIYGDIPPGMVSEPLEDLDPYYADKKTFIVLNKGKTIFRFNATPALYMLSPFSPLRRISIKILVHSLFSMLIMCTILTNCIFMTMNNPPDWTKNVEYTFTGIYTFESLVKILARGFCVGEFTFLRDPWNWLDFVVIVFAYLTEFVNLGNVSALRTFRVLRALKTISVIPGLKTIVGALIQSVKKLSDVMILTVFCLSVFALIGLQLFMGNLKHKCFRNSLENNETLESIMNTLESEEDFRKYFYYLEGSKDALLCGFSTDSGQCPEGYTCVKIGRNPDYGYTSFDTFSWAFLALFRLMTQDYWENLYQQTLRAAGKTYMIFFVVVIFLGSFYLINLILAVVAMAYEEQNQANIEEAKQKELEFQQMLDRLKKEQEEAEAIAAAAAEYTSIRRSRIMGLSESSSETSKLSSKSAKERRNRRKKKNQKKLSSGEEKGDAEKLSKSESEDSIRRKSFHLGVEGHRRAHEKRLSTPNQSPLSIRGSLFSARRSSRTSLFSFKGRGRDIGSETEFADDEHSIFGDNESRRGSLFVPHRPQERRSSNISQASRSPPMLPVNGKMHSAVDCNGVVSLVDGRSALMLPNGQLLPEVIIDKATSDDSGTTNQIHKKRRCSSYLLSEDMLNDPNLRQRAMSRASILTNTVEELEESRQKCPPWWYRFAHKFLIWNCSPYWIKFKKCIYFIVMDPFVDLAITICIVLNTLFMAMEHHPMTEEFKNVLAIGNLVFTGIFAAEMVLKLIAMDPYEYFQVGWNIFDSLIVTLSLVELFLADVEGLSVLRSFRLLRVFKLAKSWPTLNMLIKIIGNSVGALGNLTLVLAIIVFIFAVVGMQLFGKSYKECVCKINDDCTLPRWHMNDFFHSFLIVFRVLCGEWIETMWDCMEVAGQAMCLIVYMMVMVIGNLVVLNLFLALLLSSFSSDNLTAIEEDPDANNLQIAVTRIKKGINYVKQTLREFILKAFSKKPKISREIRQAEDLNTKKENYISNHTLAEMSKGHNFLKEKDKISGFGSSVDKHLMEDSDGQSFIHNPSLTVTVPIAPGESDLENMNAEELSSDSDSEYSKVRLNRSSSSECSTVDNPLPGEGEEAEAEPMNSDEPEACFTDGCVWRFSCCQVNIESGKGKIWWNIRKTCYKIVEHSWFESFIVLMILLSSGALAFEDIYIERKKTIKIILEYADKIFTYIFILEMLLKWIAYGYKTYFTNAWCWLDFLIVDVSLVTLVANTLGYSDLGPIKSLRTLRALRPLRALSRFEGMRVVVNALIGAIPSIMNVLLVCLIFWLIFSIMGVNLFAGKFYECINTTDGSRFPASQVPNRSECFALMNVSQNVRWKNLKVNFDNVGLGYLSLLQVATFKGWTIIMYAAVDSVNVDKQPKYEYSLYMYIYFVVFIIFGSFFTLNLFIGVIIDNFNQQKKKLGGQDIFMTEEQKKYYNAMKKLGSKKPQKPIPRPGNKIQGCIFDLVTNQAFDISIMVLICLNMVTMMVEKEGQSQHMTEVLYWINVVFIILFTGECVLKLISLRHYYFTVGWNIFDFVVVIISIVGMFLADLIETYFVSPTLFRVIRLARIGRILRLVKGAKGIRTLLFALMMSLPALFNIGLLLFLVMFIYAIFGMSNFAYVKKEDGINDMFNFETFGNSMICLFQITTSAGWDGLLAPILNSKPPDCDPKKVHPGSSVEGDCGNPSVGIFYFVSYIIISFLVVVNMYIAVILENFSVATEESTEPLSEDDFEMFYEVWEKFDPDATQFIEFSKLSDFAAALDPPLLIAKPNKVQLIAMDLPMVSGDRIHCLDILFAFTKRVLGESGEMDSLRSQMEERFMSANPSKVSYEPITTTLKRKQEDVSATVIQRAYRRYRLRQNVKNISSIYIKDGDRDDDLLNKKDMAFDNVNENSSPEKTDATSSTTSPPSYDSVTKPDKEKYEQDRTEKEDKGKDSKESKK

Turning to `NCC(F)CNCCCCNc1cc(F)c(S(=O)(=O)Nc2ncc(F)s2)cc1Cl` (centres unmarked) [Ex 16-46, 4-({4-[(3-amino-2-fluoro-propyl)amino]butyl}amino)-5-chloro-2-fluoro-N-(5-fluoro-1,3-thiazol-2-yl)-benzenesulfonamide], the IC50 in test [1] came out at 34 nM. The “ratio of Nav 1.7 : Nav 1.5 potency (IonWorks)” value (“ratio” for short) in test [2] is reported as greater than 970.

For `O=S(=O)(Nc1nccs1)c1cc(Cl)c(NCCCCNC[C@@H]2C[C@H](Oc3ccccc3)CN2)cc1F` [Ex 8-5, 5-chloro-2-fluoro-4-{[4-({[(2S,4S)-4-phenoxypyrrolidin-2-yl]methyl}amino)butyl]-amino}-N-1,3-thiazol-2-yl-benzenesulfonamide], the IC50 in test [1] turned out to be 40 nM. The “ratio” value in test [2] stood at 425.

For `O=S(=O)(Nc1nccs1)c1cc(Cl)c(NCCCC(Cc2ccccc2)NC[C@@H]2CCCN2)cc1F` (stereo partly drawn) [Ex 6-9, 5-chloro-2-fluoro-4-[(5-phenyl-4-{[(2S)-pyrrolidin-2-ylmethyl]amino}pentyl)amino]-N-1,3-thiazol-2-ylbenzenesulfonamide], the IC50 in test [1] is 17 nM. The “ratio” value in test [2] came out at 1530.

In the case of `O=S(=O)(Nc1ncc(F)s1)c1cc(Cl)c(NCCCCN2C[C@H]3CCCN[C@H]3C2)cc1F` [Ex 16-23, 5-chloro-2-fluoro-N-(5-fluoro-1,3-thiazol-2-yl)-4-({4-[(4aR,7aR)-octahydro-6H-pyrrolo[3,4-b]pyridin-6-yl]butyl}amino)benzene-sulfonamide], in test [1], the IC50 was determined as 14 nM. Also, the “ratio” value in test [2] is given as greater than 2357.

For the molecule `O=S(=O)(Nc1nccs1)c1cc(Cl)c(NCCCCCNCC2CCCNC2)cc1F` (centres unmarked) [Ex 9-04, 5-chloro-2-fluoro-4-({5-[(piperidin-3-ylmethyl)-amino]-pentyl}amino)-N-1,3-thiazol-2-yl-benzenesulfonamide], the IC50 in test [1] turned out to be 25 nM. Moreover, in test [2], the “ratio” value is on record as greater than 1320.

Consider `O=S(=O)(Nc1nccs1)c1cc(Cl)c(NCCCCN[C@H]2[C@@H]3CC[C@H]2NC3)cc1F` [Ex 1-17, 4-({4-[(1R,4R,7S)-2-azabicyclo[2.2.1]hept-7-ylamino]butyl}amino)-5-chloro-2-fluoro-N-1,3-thiazol-2-ylbenzenesulfonamide], for which the IC50 in test [1] came to 60 nM. Also, the “ratio” value in test [2] is greater than 550.

As for `O=S(=O)(Nc1nccs1)c1cc(Cl)c(NCC2CCCC(NCC3CCCN3)C2)cc1F` (single isomer, unassigned) [Ex 6-7 Enantiomer B, 5-chloro-2-fluoro-4-((((1S,3R or 1R,3S)-3-(((S)-pyrrolidin-2-ylmethyl)amino)cyclohexyl)methyl)amino)-N-(thiazol-2-yl)benzenesulfonamide], the IC50 in test [1] came to 35 nM. For the same molecule, the “ratio” value in test [2] is greater than 940.

As for `N[C@H]1[C@@H]2CC[C@H]1N(CCCCNc1cc(F)c(S(=O)(=O)Nc3nccs3)cc1Cl)C2` [Ex 1-20, 4-({4-[(1R,4R,7S)-7-amino-2-azabicyclo[2.2.1]hept-2-yl]butyl}amino)-5-chloro-2-fluoro-N-1,3-thiazol-2-ylbenzenesulfonamide], the IC50 in test [1] stood at 56 nM. Besides, the “ratio” value in test [2] is listed as greater than 590.

Regarding `N[C@@H]1CCCN(CCCCNc2cc(F)c(S(=O)(=O)Nc3nccs3)cc2Cl)C1` [Ex 1-35, 4-({4-[(3R)-3-aminopiperidin-1-yl]butyl}amino)-5-chloro-2-fluoro-N-1,3-thiazol-2-ylbenzenesulfonamide], the IC50 in test [1] was determined as 190 nM. In addition, the “ratio” value in test [2] is greater than 170.

On to `NC1CCN(CCCCNc2cc(F)c(S(=O)(=O)Nc3nccs3)cc2Cl)CC1` [Ex 1-49, 4-{[4-(4-aminopiperidin-1-yl)butyl]amino}-5-chloro-2-fluoro-N-1,3-thiazol-2-ylbenzenesulfonamide], for which, in test [1], the IC50 stood at 33 nM. In addition, in test [2], the “ratio” value is greater than 1000.

As for `COc1ccc(CC2(CNCCCCNc3cc(F)c(S(=O)(=O)Nc4nccs4)cc3Cl)CCCN2)cc1` (single isomer, unassigned) [Ex 1-16 Enantiomer A, (S or R)-5-chloro-2-fluoro-4-{[4-({[2-(4-methoxybenzyl)pyrrolidin-2-yl]methyl}amino)butyl]amino}-N-1,3-thiazol-2-ylbenzenesulfonamide], the IC50 in test [1] turned out to be 240 nM. For the same molecule, the “ratio” value in test [2] is given as 50.

On to `O=S(=O)(Nc1nccs1)c1cc(Cl)c(NCCCCNC2CNCC(c3ccccc3)C2)cc1F` (centres unmarked) [Ex 1-31, 5-chloro-2-fluoro-4-({4-[(5-phenylpiperidin-3-yl)amino]butyl}amino)-N-1,3-thiazol-2-ylbenzenesulfonamide], for which the IC50 in test [1] came to 37 nM. Besides, the “ratio” value in test [2] is greater than 890.

`O=S(=O)(Nc1nccs1)c1cc(Cl)c(NCCCCNC[C@@H]2CC(F)(F)CN2)cc1F` [Ex 8-2, (S)-5-chloro-4-((4-(((4,4-difluoropyrrolidin-2-yl)methyl)amino)butyl)amino)-2-fluoro-N-(thiazol-2-yl)benzenesulfonamide]: the IC50 in test [1] stood at 59 nM. In addition, the “ratio” value in test [2] is recorded as 460.

With `O=S(=O)(Nc1nccs1)c1cc(Cl)c(NCCCCNC[C@@H]2C[C@@H](c3ccccc3)CN2)cc1F` [Ex 8-4, 5-chloro-2-fluoro-4-{[4-({[(2S,4S)-4-phenyl-pyrrolidin-2-yl]methyl}-amino)butyl]amino}-N-1,3-thiazol-2-yl-benzenesulfonamide], the IC50 in test [1] stood at 32 nM. Moreover, the “ratio” value in test [2] is greater than 1030.

Turning to `COc1ccc(CC2(CNCCCCNc3cc(F)c(S(=O)(=O)Nc4nccs4)cc3Cl)CCCN2)cc1` (single isomer, unassigned) [Ex 1-16 Enantiomer B, (R or S)-5-chloro-2-fluoro-4-{[4-({[2-(4-methoxybenzyl)pyrrolidin-2-yl]methyl}amino)butyl]amino}-N-1,3-thiazol-2-ylbenzenesulfonamide], in test [1], the IC50 amounted to 130 nM. The “ratio” value in test [2] stood at 185.

As to `N[C@H]1CCCN(CCCCNc2cc(F)c(S(=O)(=O)Nc3nccs3)cc2Cl)C1` [Ex 1-37, 4-({4-[(3S)-3-aminopiperidin-1-yl]butyl}amino)-5-chloro-2-fluoro-N-1,3-thiazol-2-ylbenzenesulfonamide], in test [1], the IC50 came to 97 nM. Further, the “ratio” value in test [2] is given as greater than 340.

On to `O=S(=O)(Nc1nccs1)c1cc(Cl)c(NCCCCCNCC2CCN2)cc1F` (centres unmarked) [Ex 9-06, 4-({5-[(azetidin-2-ylmethyl)amino]-pentyl}amino)-5-chloro-2-fluoro-N-1,3-thiazol-2-yl-benzenesulfonamide], for which the half-inhibitory concentration (IC50) in test [1] amounted to 200 nM. The “ratio” value in test [2] was greater than 160.

In the case of `COc1cccc(CC2(CNCCCCNc3cc(F)c(S(=O)(=O)Nc4nccs4)cc3Cl)CCCN2)c1` (centres unmarked) [Ex 1-34, 5-chloro-2-fluoro-4-{[4-({[2-(3-methoxy-benzyl)-pyrrolidin-2-yl]methyl}-amino)-butyl]amino}-N-1,3-thiazol-2-yl-benzenesulfonamide], in test [1], the IC50 worked out at 64 nM. The “ratio” value in test [2] was greater than 510.

Turning to `O=S(=O)(Nc1nccs1)c1cc(Cl)c(NCCCCN2CCCNCC2)cc1F` [Ex 1-53, 5-chloro-4-{[4-(1,4-diazepan-1-yl)butyl]-amino}-2-fluoro-N-1,3-thiazol-2-yl-benzenesulfonamide], in test [1], the IC50 was 79 nM. The “ratio” value in test [2] was greater than 418.

On to `CN[C@@H]1CCN(CCCCNc2cc(F)c(S(=O)(=O)Nc3ncns3)cc2Cl)C1` [Ex 16-03, 5-chloro-2-fluoro-4-({4-[(3R)-3-(methylamino)pyrrolidin-1-yl]-butyl}-amino)-N-1,2,4-thiadiazol-5-ylbenzene-sulfonamide], for which the IC50 in test [1] was 14 nM. For the same molecule, the “ratio” value in test [2] worked out at 1930.

In the case of `C[C@@H](N)CNCCCCCNc1cc(F)c(S(=O)(=O)Nc2nccs2)cc1Cl` [Ex 9-05, 4-[(5-{[(2R)-2-aminopropyl]-amino}penty)amino]-5-chloro-2-fluoro-N-1,3-thiazol-2-yl-benzenesulfonamide], in test [1], the IC50 was 79 nM. Moreover, the “ratio” value in test [2] is greater than 420.

Take `O=S(=O)(Nc1nccs1)c1cc(Cl)c(NCCCCN2CCCC3(CCCN3)C2)cc1F` (centres unmarked) [Ex 1-39, 5-chloro-4-{[4-(1,7-diazaspiro[4.5]dec-7-yl)butyl]amino}-2-fluoro-N-1,3-thiazol-2-ylbenzenesulfonamide]: the IC50 in test [1] was 130 nM. Also, in test [2], the “ratio” value is recorded as greater than 250.
